Source: patent US10072262B2, “RIG-I ligands and methods for producing them” (RHEINISCHE FRIEDRICH-WILHELMS-UNIVERSITÄT BONN, priority 2012, dated 2018)

Molecular target: T1, RIG-I (Homo sapiens, UniProt O95786)
T1 construct: endogenous in cells
T1 sequence (O95786 1-925): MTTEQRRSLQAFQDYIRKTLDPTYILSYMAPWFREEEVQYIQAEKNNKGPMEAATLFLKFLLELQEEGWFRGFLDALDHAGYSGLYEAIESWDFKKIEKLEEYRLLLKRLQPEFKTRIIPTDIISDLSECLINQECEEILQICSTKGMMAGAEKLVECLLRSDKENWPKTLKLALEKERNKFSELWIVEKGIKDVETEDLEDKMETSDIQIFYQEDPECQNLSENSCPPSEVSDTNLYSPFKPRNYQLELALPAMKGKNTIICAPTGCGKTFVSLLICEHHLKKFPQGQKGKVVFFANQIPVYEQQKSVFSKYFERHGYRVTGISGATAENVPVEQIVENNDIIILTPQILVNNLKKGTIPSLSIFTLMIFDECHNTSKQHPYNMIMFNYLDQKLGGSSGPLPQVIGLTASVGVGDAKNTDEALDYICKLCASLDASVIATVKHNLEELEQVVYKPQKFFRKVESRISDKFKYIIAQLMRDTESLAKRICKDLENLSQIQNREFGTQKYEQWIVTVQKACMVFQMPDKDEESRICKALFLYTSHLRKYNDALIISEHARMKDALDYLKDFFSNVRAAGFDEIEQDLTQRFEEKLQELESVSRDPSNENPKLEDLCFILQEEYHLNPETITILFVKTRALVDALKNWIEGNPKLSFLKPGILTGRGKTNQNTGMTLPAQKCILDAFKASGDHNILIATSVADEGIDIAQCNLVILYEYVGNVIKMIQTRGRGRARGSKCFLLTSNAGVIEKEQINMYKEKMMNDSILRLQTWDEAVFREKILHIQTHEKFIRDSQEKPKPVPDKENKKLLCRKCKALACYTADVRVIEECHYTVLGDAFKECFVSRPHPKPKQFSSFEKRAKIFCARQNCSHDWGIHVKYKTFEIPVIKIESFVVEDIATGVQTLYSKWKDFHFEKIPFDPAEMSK
Assay: RIG-I stimulation: chloroquine-blocked PBMCs, duplex lipofection, IFNa ELISA at 20 h
Assay type: cell-based
Details: FIG. 7B titration
Method: A screen of 2′-O-methylations resolved positions to introduce RIG-I selectivity (FIG. 5). For the sense (A) and antisense (B) strand of OH-GFP2 a full 2′-O-methylation screen was performed. Each position was modified individually by 2′-O-methylation and used for stimulation of RIG-I, TLR7 or TLR8. For stimulation of RIG-I, peripheral blood mononuclear cells (PBMCs) were blocked with Chloroquine and stimulated by lipofection of the duplex. IFNa was measured 20 h post stimulation by ELISA. For TLR7 and TLR8 only the relevant single-strand was screened for stimulatory capacity and checked on unblocked PBMCs. The single-strands were transfected by complexation with poly-L-Arginine and 20 h post transfection for TLR7 activation IFNa, for TLR8 activation IL12p70 was measured by ELISA. […]
FIG. 6: (A) Methylations inert for RIG-I activation were combined in the antisense strand and the resulting duplex was used for stimulation of chloroquine-blocked PBMCs at a concentration of 0.8 μg/ml. IFNa was measured by ELISA at 20 h post stimulation. […]
FIG. 7: (A) PBMCs were blocked with Chloroquine and stimulated with duplexes at a concentration of 0.8 μg/ml. 20 h post stimulation IFNa was measured by ELISA. […] 20 h post stimulation IFNa was determined in the supernatant by ELISA. […]

Row | Substance | duplex immune activity (effect of 5′-PTO modification), in words (compared with s15/as3) | IFNa corresponding to 100% (50 nM, chloroquine-blocked PBMCs, Lipofectamine, 20 h, 4 donors) [pg/mL]
1 | s15 PTO/as3 PTO: G*A*C GCUGACCCUGAAmGUUCAUC U U / C U GmCGACUGGGACUU CAAGUAG*A*A; * = PTO, Nm = 2′-OCH3 (sense GACGCUGACCCUGAAGUUCAUCUU; antisense CUGCGACUGGGACUUCAAGUAGAA; phosphorothioate and 2'-O-methyl modifications, chemistry not fully specified; one strand is listed 3' to 5') | maximum increase in activity | 
2 | 3P-GFP2: ppp-GACGCUGACCCUGAAGUUCAUCUU / CUGCGACUGGGACUUCAAGUAGAA; unmodified triphosphate duplex (5'-triphosphate, chemistry not fully specified; one strand is listed 3' to 5') |  | 16044
